Series [1] deals with human ovarian (SKOV-3) cancer cell line. Put plainly: MTT cytotoxicity assay, SKOV-3. It is filed as cell-based. The note with it: MTT; for IC50: Homo sapiens, SK-OV-3, 72 h, six concentrations, mean ± SD of three independent experiments. The procedure: (§1) To establish a SAR of the C-3 (R2) and C-23 (R1) of the AA derivatives, new compounds were subjected to MTT assays to evaluate their in-vitro antiproliferative activities against ovarian (SKOV-3) and colon (HCT-116) cancer cell lines, the IC50 values (the concentration that inhibits 50% of cell growth) of which are summarized in Table 1. Doxorubicin was used as the positive drug.
(§2) HCT116, SKOV-3, A549, A2780, HepG2, HL-60 and MCF-7 cells were incubated in DMEM with 10% heat-inactivated FBS in a humidified atmosphere of 5.0% CO2 at 37 °C. The in-vitro cytotoxicity of AA derivatives was determined using MTT assay. A 100-μL volume of culture medium at a concentration of 3 × 10^4 cell/mL was added to 96-well plate wells, which were maintained in a humidified atmosphere of 5.0% CO2 at 37 °C. After 24 h, 10 μL solution of AA derivatives and doxorubicin dissolved in DMSO and phophate buffered saline (PBS) and then diluted with DMEM under a concentration gradient, was added in the wells for final concentrations of 100, 10, 1, 0.1, 0.01, 0.001 μM of compounds in HCT116 and SKOV-3 cells and 125, 25, 5, 1, 0.2, 0.04 μM in A549, A2780, HepG2, HL-60 and MCF-7 cells. After 72 h incubation in a humidified atmosphere of 5.0% CO2 at 37 °C, 20 μl MTT solution (5 mg/mL) was added into each well and the cells were incubated. After 4 h, 100 μL HCl aqueous solution (0.01 M) with 10% SDS and 5% isobutanol was added into each well to dissolve the precipitated formazan and the absorbance was read at 570 nm on Thermo Scientific Varioskan Flash plate reader. All IC50 values were averaged from three independent experiments.

In series [2] the test system is human colon (HCT-116) cancer cell line. Put plainly: MTT cytotoxicity assay, HCT116. It counts as cell-based. The note with it: for IC50: Homo sapiens, HCT-116, MTT, 72 h, six concentrations, mean ± SD of three independent experiments. The procedure:
as §1, §2
(In general: Tetrazolium assays rely on reduction of a dye to a coloured formazan, in cell work by metabolically active cells.)

For series [3], the system named is A2780 cells. In words: MTT cytotoxicity assay, A2780. It counts as cell-based. As to conditions: Homo sapiens, 72 h, mean ± SD of three independent experiments. As to the method: as §2
Series [4] concerns HepG2 cells. In words: MTT cytotoxicity assay, HepG2. It is filed as cell-based. As to conditions: Homo sapiens, 72 h, mean ± SD of three independent experiments. The procedure:
as §2

Series [5] deals with MCF-7 cells. In words: MTT cytotoxicity assay, MCF-7. It is filed as cell-based. As to conditions: Homo sapiens, MCF7, 72 h, mean ± SD of three independent experiments. The procedure:
as §2

Series [6] concerns A549 cells. Put plainly: MTT cytotoxicity assay, A549. It counts as cell-based. The note with it: Homo sapiens, 72 h, mean ± SD of three independent experiments. The procedure: as §2
A further series deals with HL-60 cells. In words: MTT cytotoxicity assay, HL-60. It is filed as cell-based. As to conditions: Homo sapiens, 72 h, mean ± SD of three independent experiments. As to the method: as §2
The test system of series [7] is human ovarian cancer cells (A2780). The arrangement: method as in PMID 27416552, PMID 24268794. As to conditions: read-out: EC50 against human ovarian cancer cells (A2780); cited from earlier work.
In series [8] the test system is human normal cell line (HUVEC). In words: CCK-8 cytotoxicity assay, human normal cell line HUVEC. It counts as cell-based. As to conditions: for cytotoxic effect on HUVEC cell viability: CCK-8, concentrations of 125, 25, 5, 1, 0.2, 0.04 μM, 72 h; for IC50: HUVEC, CCK-8, 72 h, human normal cell line. As to the method:
Additionally, the cytotoxic activities of compounds 10, 14j and 14k were evaluated against one human normal cell line (HUVEC) using CCK-8 assay (Table 3).
HUVEC cell lines were incubated in DMEM with 10% heat-inactivated FBS in a humidified atmosphere of 5.0% CO2 at 37 °C. The in-vitro cytotoxicity of AA derivatives was determined using CCK-8. A 100-μL volume of culture medium at a concentration of 3 × 10^4 cell/mL was added to 96-well plate wells, and these were maintained in a humidified atmosphere of 5.0% CO2 at 37 °C. After 24 h, 10 μL solution of AA derivatives dissolved in DMSO and PBS and then diluted with DMEM under a concentration gradient was added to the wells for final concentrations of 125, 25, 5, 1, 0.2, 0.04 μM. After 72 h incubation in a humidified atmosphere of 5.0% CO2 at 37 °C, 10 μl CCK-8 solution was added into each well and the cells were incubated for another 1 h, and the absorbance was read at 450 nm. All cell viability levels were averaged from three independent experiments.

In series [9] the test system is human normal cell line (HUVEC). The arrangement: method as in PMID 25151580. As to conditions: literature value for AA; cited from earlier work.
Series [10] relates to MCF-7 cells. The arrangement: method as in PMID 26974379. As to conditions: literature value for AA; cited from earlier work.
Series [11] relates to A2780 cells. The arrangement: method as in PMID 30278332. As to conditions: literature value for AA; cited from earlier work.
Series [12] concerns HepG2 cells. The arrangement: method as in PMID 31057738. As to conditions: literature value for AA; cited from earlier work.
The subject of series [13] is A549 cells. The arrangement: method as in PMID 31057738. As to conditions: literature value for AA; cited from earlier work.

Read-outs that look alike come from different tables or passages of the source. Bounds are passed on as bounds.

Consider `CO[C@@H]1C[C@@]2(C)[C@@H](CC[C@]3(C)[C@@H]2CC=C2[C@@H]4[C@@H](C)[C@H](C)CC[C@]4(C(=O)NCc4ccccc4)CC[C@]23C)[C@](C)(C(N)=O)[C@H]1OC(C)=O` [Compound 14a, α-Methoxy-3β-Acetoxy-Urs-12-Ene-28-Benzyl Amide-23-Amide], for which the figures for the IC50 in series [1] and in series [2] were 7.12 ± 2.61 µM and 6.52 ± 3.03 µM, respectively.
Consider `COC(=O)C(Cc1ccccc1)NC(=O)C1(C)C(O)C(OC)CC2(C)C1CCC1(C)C2CC=C2C3C(C)C(C)CCC3(C(=O)NCc3ccccc3)CCC21C` [Compound 13h, N-(2α-Methoxy-3β-Hydroxy-Urs-12-Ene-28-Benzylamide-23-oyl)-L-Phenylalanine Methyl Ester], for which, in series [1], the IC50 is above 100 µM and the “cytotoxic activity against SKOV-3 cell line (in words)” value is listed as “not active”. In [2], the IC50 was above 50 µM.
In the case of `CO[C@@H]1C[C@@]2(C)[C@@H](CC[C@]3(C)[C@@H]2CC=C2[C@@H]4[C@@H](C)[C@H](C)CC[C@]4(C(=O)NCc4ccccc4)CC[C@]23C)[C@](C)(C(=O)O)[C@H]1O` [Compound 7, α-Methoxy-3β-Hydroxy-Urs-12-Ene-28-Benzylamide-23-Oic Acid], the IC50 is 31.9 ± 2.59 µM in [1] and 16.7 ± 1.68 µM in series [2].
As for `CO[C@@H]1C[C@@]2(C)[C@@H](CC[C@]3(C)[C@@H]2CC=C2[C@@H]4[C@@H](C)[C@H](C)CC[C@]4(C(=O)NCc4ccccc4)CC[C@]23C)[C@](C)(C(=O)N2CCN(C)CC2)[C@H]1O` [Compound 13k, α-Methoxy-3β-Hydroxy-Urs-12-Ene-28-Benzylamide-23-(4-Methyl-1-Piperazinyl)-Amide], the IC50 in the series on A2780 cells [3] came out at 13 ± 1.18 µM; in the series with HepG2 cells [4], 2.22 ± 0.68 µM; in the series on MCF-7 cells [5], 2.85 ± 0.25 µM; with A549 cells [6], 5.7 ± 0.58 µM; with HL-60 cells, 10.7 ± 2.08 µM.
Consider `CC(=O)O[C@@H]1C[C@]2(C)[C@H]3CC=C4[C@@H]5CC(C)(C)CC[C@]5(C(=O)NCc5ccccc5)CC[C@@]4(C)[C@]3(C)CC[C@H]2C(C)(C)[C@H]1OC(C)=O` [EM2], for which the EC50 in series [7] was 0.5 µM.
As to `COC(=O)C(Cc1ccccc1)NC(=O)C1(C)C(OC(C)=O)C(OC)CC2(C)C1CCC1(C)C2CC=C2C3C(C)C(C)CCC3(C(=O)NCc3ccccc3)CCC21C` [Compound 14h, N-(2α-Methoxy-3β-Acetoxy-Urs-12-Ene-28-Benzylamide-23-Oyl)-L-Phenylalanine Methyl Ester], the IC50 in series [1] and in [2] was above 100 µM throughout.
Take `C#CCNC(=O)[C@@]1(C)[C@@H]2CC[C@]3(C)[C@H](CC=C4[C@@H]5[C@@H](C)[C@H](C)CC[C@]5(C(=O)NCc5ccccc5)CC[C@]43C)[C@@]2(C)C[C@@H](OC)[C@@H]1OC(C)=O` [Compound 14e, α-Methoxy-3β-Acetoxy-Urs-12-Ene-28-Benzyl Amide-23-Propargylamide]: the IC50 in series [1] and in series [2] was above 100 µM each time.
Regarding `COC(=O)[C@@]1(C)[C@@H]2CC[C@]3(C)[C@H](CC=C4[C@@H]5[C@@H](C)[C@H](C)CC[C@]5(C(=O)NCc5ccccc5)CC[C@]43C)[C@@]2(C)C[C@@H](OC)[C@@H]1OC(C)=O` [Compound 10, α-Methoxy-3β-Acetoxy-Urs-12-Ene-28-Benzylamide-23-Methyl Ester], the IC50 is 1.28 ± 0.32 µM in the series with A2780 cells [3]; 1.43 ± 0.32 µM in the series with HepG2 cells [4]; above 125 µM in series [8]; 1.08 ± 0.66 µM in [2]; 3.99 ± 1.21 µM with MCF-7 cells [5]; above 125 µM with A549 cells [6]. This molecule registered an IC50 in the series with HL-60 cells of 0.47 ± 0.08 µM. Also, the “cytotoxic effect on HUVEC cell viability” value in series [8] is on record as “no cytotoxic effect”. For the same molecule, the “fold more active than AA against HCT116 cell line” value in series [2] (relative to AA) was determined as 23 fold.
Turning to `COC(=O)C(NC(=O)C1(C)C(OC(C)=O)C(OC)CC2(C)C1CCC1(C)C2CC=C2C3C(C)C(C)CCC3(C(=O)NCc3ccccc3)CCC21C)C(C)C` [Compound 14g, N-(2α-Methoxy-3β-Acetoxy-Urs-12-Ene-28-Benzylamide-23-Oyl)-L-Valine Methyl Ester], the concentration for half-maximal inhibition (IC50) in series [1] and in series [2] was above 100 µM throughout.
Turning to `C[C@H]1[C@H](C)CC[C@]2(C(=O)O)CC[C@]3(C)C(=CC[C@@H]4[C@@]5(C)C[C@@H](O)[C@H](O)[C@@](C)(CO)[C@@H]5CC[C@]43C)[C@H]12` [AA, 2α,3β,23-trihydroxyurs-12-ene-28-oic acid], the IC50 in [9] was above 100 µM; in the series on MCF-7 cells [10], 68.5 ± 2.5 µM; in series [1], 20.5 ± 4.06 µM; in [2], 24.6 ± 3.26 µM; in the series with A2780 cells [11], 28.2 ± 0.3 µM; in the series with HepG2 cells [12], 35.4 ± 1.47 µM. Moreover, the IC50 with A549 cells [13] was 41 ± 0.87 µM.
On to `CO[C@@H]1C[C@@]2(C)[C@@H](CC[C@]3(C)[C@@H]2CC=C2[C@@H]4[C@@H](C)[C@H](C)CC[C@]4(C(=O)NCc4ccccc4)CC[C@]23C)[C@](C)(C(=O)N(C)C)[C@H]1OC(C)=O` [Compound 14j, α-Methoxy-3β-Acetoxy-Urs-12-Ene-28-Benzyl Amide-23-Dimethylamide], for which the half-maximal inhibitory concentration (IC50) is 2.24 ± 0.52 µM in the series with A2780 cells [3]; 3.77 ± 1.22 µM in the series on HepG2 cells [4]; above 125 µM in series [8]; 1.83 ± 0.91 µM in series [2]; 5.89 ± 1.33 µM with MCF-7 cells [5]; 6.72 ± 0.64 µM in the series with A549 cells [6]. In the series with HL-60 cells, this molecule showed an IC50 of 3.01 ± 0.44 µM. For the same molecule, in series [8], the “cytotoxic effect on HUVEC cell viability” value is “no cytotoxic effect”.
Regarding `CO[C@@H]1C[C@@]2(C)[C@@H](CC[C@]3(C)[C@@H]2CC=C2[C@@H]4[C@@H](C)[C@H](C)CC[C@]4(C(=O)NCc4ccccc4)CC[C@]23C)[C@](C)(C(=O)N2CCN(C)CC2)[C@H]1OC(C)=O` [Compound 14k, α-Methoxy-3β-Acetoxy-Urs-12-Ene-28-Benzylamide-23-(4-Methyl-1-Piperazinyl)-Amide], the IC50 with A2780 cells [3] is 4.31 ± 0.58 µM; with HepG2 cells [4] it was 2.84 ± 0.46 µM; in series [8] it was above 125 µM; in the series on MCF-7 cells [5] it was 1.78 ± 0.38 µM; in the series on A549 cells [6], 4.04 ± 0.51 µM; in the series with HL-60 cells it was 3.36 ± 0.66 µM. In addition, in series [8], the “cytotoxic effect on HUVEC cell viability” value is “no cytotoxic effect”.
In the case of `CO[C@@H]1C[C@@]2(C)[C@@H](CC[C@]3(C)[C@@H]2CC=C2[C@@H]4[C@@H](C)[C@H](C)CC[C@]4(C(=O)NCc4ccccc4)CC[C@]23C)[C@](C)(C(=O)NC(C)C)[C@H]1OC(C)=O` [Compound 14d, α-Methoxy-3β-Acetoxy-Urs-12-Ene-28-Benzyl Amide-23-Isopropylamide], the IC50 in series [1] and in series [2] was above 100 µM throughout.

One may read the IC50 as the concentration that inhibits the measured activity by half. The EC50 is the concentration giving half of the maximal effect.

Source of the values: publication PMC7464201, “Synthesis and Cytotoxic Activity of Novel C-23-Modified Asiatic Acid Derivatives” (Molecules, 2020).
